Laboratory results as given in patent publication EP0435693B1, “Pharmaceutical compositions containing 3-oxygermylpropionic acid polymers for inhibiting the degeneration of cells” (SANWA KAGAKU KENKYUSHO CO., LTD., priority 1989, dated 1991).

Experiments:
[1] = system: SD masculine rats; assay: Subacute toxicity, oral, three months; type: in vivo
Procedure: (§1) With (a) the 3-oxygermylpropionic acid according to this invention (hereinafter called SK-818) and (b) the composition of Preparation Ex. 1, SD rats and mice were subjected to acute and subacute (chronic) toxicity tests in conventional manner. (Groups of animals, 8-10 per group, were used for experimentation).
(a) SK-818 and (b) the composition of Preparation Ex. 1 were administered orally to SD masculine rats at doses of 256, 380, 640, 1300, 1600 and 4000 mg/kg/day over three months to determine the doses at which there was no toxic influence on the animals and the animals were absolutely poisoned, respectively.

[2] = system: rat's hepatocytes; assay: Inhibition of GPT elution from cultivated liver cells treated with hepatocyte-damaging substances; type: cell-based
Source text: The effect on relieving the culture damage induced by adding hepatocyte-damaging substances and SK-818 to hepatocyte culture systems was examined by measuring the activity of glutamic-pyruvic transaminase (GPT) eluates obtained by cellular disorders. How much the elution of GPT was inhibited was used as an index to the hepatoxicity-relieving effect.
The following four substances were used as the hepatocyte-damaging (hepatoxic) substances. • (a) Galactosamine - "J. Natur. Prod.", 46, 841, 1983. • (b) Calcium ionophore - "Pharmacognosy", 39, 218, 1985. • (c) Cumene hydroperoxide - "Planta Med.", 51, 50, 1985. • (d) 1-Naphthylisothiocyanate.
The extraction and culture of a single layer of rat's hepatocytes were carried out by the procedures described by Nakamura et al in "Protein, Nucleic Acid and Oxygen", Extra Number No. 24, pp. 55-74, 1981.
Single layers of rats' hepatocytes were cultured for certain periods of time:- 0 hour for a galactosamine group, 20.5 hours for calcium ionophore and cumene hydroperoxide groups, and 14.5 hours for a 1-naph isocyanate group. Afterwards, the hepatocyte-damaging substances were added to the culture media at the respective desired concentrations:- 0.35 mM for (a); 10 »m for (b), 0.5 mM for (c) and 188 »m for (d)), which were then cultured for the respective given periods of time:- 38 hours for the group (a), 1 hour for (b), 1 hour for (c) and 12 hours for (d).
SK-818 was dissolved in bovine embryo serum, and the serum solution was then added to each medium at the respective stages of culture by the following three methods; • (a) it was added to the pre-culture medium prior to the addition of the hepatocyte-damaging substance (called the pre-addition); • (b) it was added to the culture medium simultaneously with the addition of the hepatocyte-damaging substance (called the simultaneous addition); and • (c) it was added to the pre-culture and culture media (called the total addition).
The activity of the GPT eluates produced by cytotoxicity in the media was measured by a GPT measuring kit. Then, GPT reductions in % were found by the following equation: [formula] wherein A is the activity in Karmen units of GPT in a culture medium to which no hepatocyte-damaging substance is added, B is the activity in Karmen units of GPT in a culture medium to which the hepatocyte-damaging substance is added; and C is the activity in Karmen units of GPT in a culture medium to which the hepatocyte-damaging substance is added together with 3-oxygermylpropionic acid.

[3] = system: SD rats and mice; assay: Acute toxicity test, general symptoms; type: in vivo
Source text: as §1
Between (a) SK-818 and (b) the composition of Preparation Ex. 1 there was no significant difference in acute toxicity.

[4] = system: Type B chronic hepatitis; assay: Clinical test for Type B chronic hepatitis against placebo; type: in vivo, patients
Procedure: The efficacy of SK-818 against Type B chronic hepatitis was examined, using a placebo as control.
The subjects were patients who had been diagnosed by biopsy as chronic hepatitis before at most one year in principle, were positive to HBe antigens and had Type B chronic hepatitis in need of treatment.
• (i) The drug under test was a capsule containing 10 mg of SK-818. • (ii) The control consisted only of lactose (a placebo).
The subjects followed the standard prescription of three capsules a day and one capsule each meal over 16 weeks in principle.
The general examination of the functioning of the livers and blood and the measurement of HBe antigens and antibodies were all carried out by the Virus Hepatitis Research Foundation.

[5] = orally, daily over three months
[6] = SK-818 against Placebo, time points with significance
[7] = determined by physicians, Total 95

## 3-oxygermylpropionic acid [SK-818]
[1]; At 4000 mg/kg, orally over three months
  mortality: some animals died
[1]; [5]
  dose at which the animals were absolutely poisoned: 1600 mg/kg
  dose which had no toxic influence on the animals: 256 mg/kg
[2]; 1-naphthylisothiocynate 188 »m, simultaneous addition
  GPT reductions: 79%
[2]; 1-naphthylisothiocynate 188 »m, total addition
  GPT reductions: 67%
[2]; calcium ionophore 10 »m, simultaneous addition
  GPT reductions: 27%
[2]; calcium ionophore 10 »m, total addition
  GPT reductions: 36%
[2]; cumene hydroperoxide 0.5 mM, simultaneous addition
  GPT reductions: 63%
[2]; cumene hydroperoxide 0.5 mM, total addition
  GPT reductions: 42%
[2]; galactosamine 0.35 mM, simultaneous addition
  GPT reductions: 29%
[2]; only pre-addition, before the hepatocyte-damaging substance
  GPT reduction: No GPT reduction
[3]
  general symptoms: general symptoms of tranquilization, diarrhoea, vomiting and typhlectasis
[4]; 4W
  GOT: ↓ *
  GPT: ↓ *
  HBe antibodies (RIA%): ↑ *
  HBe antigens (EIA) log: ↓***
  LDH (mu/ml): ↓ +
  Total Bilirubin (mg/dl): ↓ *
[4]; 8W
  AIP (KA): ↓ +
  Cholinesterase (ΔPH): ↑ *
  GOT: ↓ +
  GPT: ↓**
  HBe antibodies (RIA%): ↑ *
  HBe antigens (EIA) log: ↓ **
  LDH (mu/ml): ↓ +
  Total Cholesterol (mg/dl): ↑ *
[4]; 12W
  AIP (KA): ↓ +
  Cholinesterase (ΔPH): ↑ *
  GOT: ↓***
  GPT: ↓***
  HBe antibodies (RIA%): ↑ **
  HBe antigens (EIA) log: ↓***
  LDH (mu/ml): ↓ *
  Serum Albumin (g/dl): ↑ *
  TTT: ↓**
  Total Cholesterol (mg/dl): ↑ *
  ZTT: ↓**
  γ-GTP (mu/ml): ↓**
  γ-Globulin (g/dl): ↓**
[4]; 16W
  GOT: ↓***
  GPT: ↓***
  HBe antibodies (RIA%): ↑ *
  HBe antigens (EIA) log: ↓***
  Serum Albumin (g/dl): ↑ +
  TTT: ↓***
  Total Cholesterol (mg/dl): ↑ *
  ZTT: ↓**
  γ-GTP (mu/ml): ↓ **
  γ-Globulin (g/dl): ↓***
[4]; Af4W (after 4 weeks)
  Cholinesterase (ΔPH): ↑ *
  GOT: ↓ **
  GPT: ↓ **
  HBe antibodies (RIA%): ↑ *
  HBe antigens (EIA) log: ↓***
  TTT: ↓***
  ZTT: ↓**
  γ-GTP (mu/ml): ↓ **
  γ-Globulin (g/dl): ↓***
[4]; Af8W (after 8 weeks)
  Cholinesterase (ΔPH): ↑**
  GOT: ↓ **
  GPT: ↓ **
  HBe antibodies (RIA%): ↑ **
  HBe antigens (EIA) log: ↓***
  TTT: ↓ *
  Total Cholesterol (mg/dl): ↑*
  ZTT: ↓ *
  γ-GTP (mu/ml): ↓ *
  γ-Globulin (g/dl): ↓ *
[4]; [6]
  Cholinesterase (ΔPH), Differences between groups: 4w* 12W** Af4W* 8w** 16w* Af8w+
  GPT, Differences between groups: 8w* 12w** 16W* Af4w*
  HBe antibodies (RIA%), Differences between groups: 4W* 12W* 16W* Af8w+
  HBe antigens (EIA) log, Differences between groups: 4W** 12W* 16W* Af4w*
  TTT, Differences between groups: Af4w+
  Total Cholesterol (mg/dl), Differences between groups: 8W* 16W** 12W** Af8w*
  γ-Globulin (g/dl), Differences between groups: 12W+ Af4w* 16w+ Af8w+
[4]; determined by physicians, P=0.0011 against placebo
  Rate of Amelioration, Slightly ameliorated or more: 57.9%
[4]; determined by physicians, P=0.0114 against placebo
  Rate of Amelioration, Ameliorated to some or higher extent: 36.8
[4]; [7]
  Degree of Amelioration: Ameliorated to some extent (number of cases): 23
  Degree of Amelioration: Less aggravated (number of cases): 5
  Degree of Amelioration: Nochange (number of cases): 31
  Degree of Amelioration: Slightly ameliorated (number of cases): 20
  Degree of Amelioration: aggravated (number of cases): 4
  Degree of Amelioration: seriously aggravated (number of cases): 0
[4]; determined by physicians, Total 95, 10 mg capsule three a day over 16 weeks
  Degree of Amelioration: Remarkably ameliorated (number of cases): 12
